This is an account of results in patent US20170234881A1, “METHODS OF DIAGNOSING AND TREATING CANCER” (INSERM ( INSTITUT NATIONAL DE LA SANTÉ ET DE LA RECHERCHE …, priority 2014, published 2017).

For one test, the system named is TS/A cells. Nature of the test: Cell proliferation assay (BrDU incorporation), TS/A. The format is cell-based, mouse. Conditions: TS/A cells treated 24 h, concentration-dependent, level reached. On the procedure:
FIG. 2. OCDO is a tumor promoter in vitro and in vivo and its inhibition contributes to the anti-tumor effects of Tam and DDA. (A, B) Histograms representing the effect of OCDO or 17β-estrogen (E2) on MCF7 (A) and TS/A (B) cell proliferation after 24 h treatment using a colorimetric immunoassay measuring BrDU incorporation in DNA (C, D) Histogram representing the effect of OCDO on MCF7 (C) and TS/A (D) cell invasion. Data are the mean of three separate experiments (±[…]) Mice were implanted s.c. with MCF7 (E) or TS/A (F) cells and animals (8 per group) were treated s.c. every day starting on the day of implantation with either the solvent vehicle or OCDO (16 μg/kg for MCF7 or 50 μg/kg for TS/A). Animals were monitored for tumour growth twice a week. The data are representative of three independent experiments. The mean tumor volume±s.e.m is shown, *P<0.05, **P<0.01, ***P<0.001 (analysis of variance (ANOVA), Dunnett's post test). […] (I, J, K). Murine […], or human MDA-MB231 (J) or MDA-MB468 (K) cells implanted s.c. into mice (8 per group) and animals were treated s.c. with either the solvent vehicle or OCDO (16 μg/kg for MDA-MB-231 and MDA-MB-468 or 50 μg/kg for E0771). […] At the end of this time, cells were incubated with BrDU for an additional 8 h and then evaluated for proliferation using the ELISA kit, Roche Diagnostic, as indicated by the manufacturer.

The subject of the next test is shHSD2 MCF7 cells. Nature of the test: Proliferation of shHSD2 MCF7 cells (BrDU). The format is cell-based, human. Conditions: sh11HSD2 MCF7 cells, 24 h; OCDO 5 μM; cortisone increasing concentrations. On the procedure:
(§1) FIG. 7. Knock-down of 11βHSD2 decreases cell proliferation, invasion and survival in MCF7 cells as well as tumor growth and OCDO reverses these effects. shC or shHSD2 MCF7 cells were analyzed as followed: (A) The proliferation of sh-C or shHSD2 cells treated or not with OCDO 5 μM 24 h was measured using quantification of DNA BrDU incorporation as described in FIG. 2A. (B) The proliferation of sh-C or shHSD2 cells treated or not with increasing concentration of cortisone for 24 h was measured as in (A). (C) The invasiveness of sh-C or shHSD2 cells treated or not with OCDO 5 μM for 72 h was assayed using matrigel-coated filters. (D) the formation of colony by sh-C or shHSD2 cells treated or not with OCDO 1 μM was quantified as described in FIG. 6F. […] Animals were monitored for tumor growth twice a week. […] (F) Mean (±s.e.m) of Ki67 positive cell number determined from IHC staining of shC or shHSD2 MCF7 tumor sections from (E), n=8, *P<0.05 (Student's t-test) using HistoQuant, Pannoramic Viewer (3DHistech).
MCF7 or HEK293T cells (5×10^6 cells) were transfected with 5 μg of the indicated plasmid using the NEON Transfection System and according to the manufacturer's recommendations. […] Several clones were analyzed by immunoblot analysis and real time RT-qPCR for the knock down of the expression of the protein of interest. […]

A further test has as its system ShC tumors. The experiment in a line: Ki67 staining of shC MCF7 tumors xenografted in mice. Conditions: OCDO treatment. The format is in vivo. On the procedure: as §1
Exponentially growing MCF7, ShMCF7, E0771, MDA-MB231, MDA-MB468 and TS/A cells were collected, washed twice in PBS and resuspended in PBS. […] Animals were examined daily, and body weights were measured twice per week. In all the experiments, the tumor volume was determined by direct measurement with a caliper and was calculated using the formula (width^2×length)/2. […]

For the compound `CC(C)CCC[C@@H](C)[C@H]1CC[C@H]2[C@@H]3CC(=O)[C@@]4(O)C[C@@H](O)CC[C@]4(C)[C@H]3CC[C@]12C` [OCDO, 6-oxo-cholestan-3β,5α-diol], the “growth rate (cell proliferation) relative to the control” value with TS/A cells turned out to be 1.7 fold. For the same compound, in the test on shHSD2 MCF7 cells, the “effect on the inhibition of cell proliferation induced by 11βHSD2 knock-down” value is “able to reverse the inhibition of cell proliferation”. Further, in the test on ShC tumors, the “cell proliferation by KI67 staining of tumors” value is listed as “increased”.
